Results on two molecules are retold here after article PMC3729937 (Biochemical and biophysical research communications, 2012).

The target of assay [1] is FGFR2 D2 domain (Homo sapiens, UniProt P21802). The assay can be described thus: ITC. Format: binding.
Assay [2] has as its target FGFR2 D2 domain (Homo sapiens, UniProt P21802, A168S). The assay is described as follows: ITC, supported by 1H-15N HSQC chemical shift perturbation. Type of assay: binding. On the technique in general: ITC needs no label: the signal is the heat of the interaction.
Assay [3] deals with fibroblast growth factor (FGF-1) (UniProt P05230 16-155). The assay can be described thus: ITC.
Chain of fibroblast growth factor (FGF-1) (P05230 16-155): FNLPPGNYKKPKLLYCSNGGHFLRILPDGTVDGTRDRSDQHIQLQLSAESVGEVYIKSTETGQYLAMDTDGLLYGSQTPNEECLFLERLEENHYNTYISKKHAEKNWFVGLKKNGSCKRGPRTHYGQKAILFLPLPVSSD

Chain of FGFR2 D2 domain (Homo sapiens, UniProt P21802, A168S) (P21802 145-255 A168S): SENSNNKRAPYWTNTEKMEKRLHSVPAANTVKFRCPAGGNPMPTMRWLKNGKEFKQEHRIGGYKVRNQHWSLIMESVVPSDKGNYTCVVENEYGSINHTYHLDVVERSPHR

`O=S(=O)(O)OC[C@H]1O[C@@](COS(=O)(=O)O)(O[C@H]2O[C@H](COS(=O)(=O)O)[C@@H](OS(=O)(=O)O)[C@H](OS(=O)(=O)O)[C@H]2OS(=O)(=O)O)[C@@H](OS(=O)(=O)O)[C@@H]1OS(=O)(=O)O` [SOS, sucrose octasulfate]: the Kd at FGFR2 D2 domain [1] was approximately 2200 nM; on FGFR2 D2 domain [2] it was approximately 22000 nM.

B1: wild type D2 domain of fibroblast growth factor receptor 2 (FGFR2), residues 145-255 (domain or fragment, human, UniProt P21802 145-255, looked up)
chain: SENSNNKRAPYWTNTEKMEKRLHAVPAANTVKFRCPAGGNPMPTMRWLKNGKEFKQEHRIGGYKVRNQHWSLIMESVVPSDKGNYTCVVENEYGSINHTYHLDVVERSPHR
In assay [3], B1 gave a dissociation constant Kd of approximately 2000 nM.

The term Kd denotes the equilibrium constant for the complex coming apart.
